What was measured:
plasmine humaine = experiment: Hydrolysis rate of chromogenic substrates by human plasmin (pNA release, OD at 405 nm); format: biochemical; settings: compared with reference product A3; underlying results expressed in ΔOD/minute at 405 nm, TEA buffer pH 8,4
Source text: (§1) L'activité des dipeptides suivant l'invention et des tripeptides consignés dans le tableau I a été étudiée sur la thrombine humaine, la plasmine humaine, le Facteur Xa humaine et la Protéine C bovine, les tripeptides A1-A4 étant les substrats de référence du commerce. La libération du marquer HR₁ (i.e. amine H₂NRʹ₁), qui est objectivée par la variation de OD pendant l'hydrolyse enzymatique des substrats, sert d'outil de comparaison.
(§2) La lecture de OD est en général effectuée à 300-470 nm, et plus précisément à 405 nm quand R₁ est pNA, pendant environ 5 minutes.
(§3) Les essais ont été réalisés sur appareil GILFORD 203 S pour automatiser la lecture des échantillons et standardiser leur traitement.
(§4) On prépare des solutions dans du sérum physiologique renfermant chacune un enzyme : thrombine humaine 3 UNIH/ml Facteur Xa humain 3,7 nkat/ml plasmine humaine 2,3 nkat/ml protéine C bovine activée 10µg/ml
(§5) On dissout chaque peptide à tester dans le l'eau à une concentration de 10 mg/ml.
(§6) 400 µl d'enzyme dilué au 1/2 dans du tampon TEA (pH 8,4) sont ajoutés à 200 µl de chacun des différents peptides à tester. On détermine les vitesses d'hydrolyse desdits substrats en suivant l'évolution de la libération de pNA. Cette évolution peut être suivie par la lecture de la varition de OD par unité de temps (ΔOD/minute) à 405 nm.

Protéine C bovine = experiment: Hydrolysis rate of chromogenic substrates by activated bovine protein C (pNA release, OD at 405 nm); format: biochemical; settings: compared with reference product A4; underlying results expressed in ΔOD/minute at 405 nm, TEA buffer pH 8,4
Source text: as §1, §2, §3, §4, §5, §6

With MM-L-4Hyp-L-Arg-pNA, H-TFA [EX 10] the “sensibilité à la plasmine” value (plasmine humaine) was “plus sensible à la plasmine que le produit de référence A3” and the “sensibilité à la protéine C” value (Protéine C bovine) was “plus sensibles à la protéine C que le produit de référence A4”.
